{"source": "patent US9439982B2", "about": "“Fluorescent cyanine-polyamine derivatives as a diagnostic probe” (PIERRE FABRE MEDICAMENT, priority 2010, dated 2016)", "key": {"[1]": {"system": "B16/F10-Luc mouse melanoma cells", "experiment": "In vivo detection by fluorescence imaging of the probe accumulating in a tumour on an animal", "conditions": "for Detection of the probe's fluorescence in the tumour in vivo: tumour B16F10 in mice, fluorescence imaging after intravenous injection; for Tumour fixation: Fluorescence at t = 24 hrs: individual mice, 24 hrs post-injection, subcutaneous B16/F10-Luc tumour in C57B16 mice; for Tumour fixation: Mean fluorescence: 24 hrs", "procedure": "(§1) 6 healthy male C57B16 mice, aged 11 weeks, were used to evaluate the tolerance of the injection of increasing doses of the probe of example 7 (F98942) (25, 50 and 100 μg). 11 male C57B16 mice aged 10 weeks were grafted subcutaneously on the right rear paw with 2.5.10^5 B16/F10-Luc mouse melanoma cells.\n(§2) The probe F98942 is placed in solution in sterile 5% glucose serum extemporaneously.\nThe mice were injected with 50 μg or 25 μg of F98942 or PBS (Phosphate Buffered Saline) intravenously. They were then anaesthetised by isoflurane gas inhalation (3% isoflurane/oxygen) prior to the fluorescence imaging examination 24 and 48 hours post-injection. After 48 hours, the tumours were removed and analysed by means of fluorescence imaging. […]"}, "[2]": {"experiment": "Tolerance of the injection of increasing doses of the probe in healthy mice", "format": "in vivo", "conditions": "healthy male C57B16 mice, 25, 50 and 100 μg", "procedure": "as §1, §2"}}, "note": "Several values for one entry are separate records, joined by “and”; a condition that tells them apart may be missing. Equal values may be shown once."}
{"smiles": "CC1(C)C(/C=C/C2=C(c3ccc(C(=O)NCCCNCCCCNCCCN)cc3)C(=C/C=C3/N(CCCCS(=O)(=O)O)c4ccc5ccccc5c4C3(C)C)/CCC2)=[N+](CCCCS(=O)(=O)[O-])c2ccc3ccccc3c21", "note": "[comparative probe, reference compound]", "values": [{"measurement": "Detection of the probe's fluorescence in the tumour in vivo", "setting": "[1]", "value": "not detected"}]}
{"smiles": "CCCCN1/C(=C/C=C/C=C/C=C/C2=[N+](CCCCCC(=O)NCCCNCCCCNCCCN)c3ccccc3C2(C)C)C(C)(C)c2ccccc21.[Br-]", "note": "[Example F98942, 1-(5-{3-[4-(3-aminopropylamino)butylamino]-propylcarbamoyl}-pentyl)-2-{(1E,3E,5E)-7-[1-butyl-3,3-dimethyl-1,3-dihydroindol-(2E)-ylidene]-hepta-1,3,5-trienyl}-3,3-dimethyl-3H-indolium bromide]", "values": [{"measurement": "Tumour fixation: Fluorescence at t = 24 hrs", "setting": "[1]; 25 μg intravenously", "value": "1.52 · 10^7 [p/s/cm^2/sr]/[μW/cm^2] and 2.10 · 10^7 [p/s/cm^2/sr]/[μW/cm^2]"}, {"measurement": "Tumour fixation: Fluorescence at t = 24 hrs", "setting": "[1]; 50 μg intravenously", "value": "3.22 · 10^7 [p/s/cm^2/sr]/[μW/cm^2] and 3.08 · 10^7 [p/s/cm^2/sr]/[μW/cm^2] and 3.12 · 10^7 [p/s/cm^2/sr]/[μW/cm^2] and 3.01 · 10^7 [p/s/cm^2/sr]/[μW/cm^2]"}, {"measurement": "Tumour fixation: Mean fluorescence", "setting": "[1]; mean of mice 1-4, 50 μg intravenously", "value": "3.14 · 10^7 [p/s/cm^2/sr]/[μW/cm^2]"}, {"measurement": "Tumour fixation: Mean fluorescence", "setting": "[1]; mean of mice 5-6, 25 μg intravenously", "value": "1.81 · 10^7 [p/s/cm^2/sr]/[μW/cm^2]"}, {"measurement": "Detection of the probe's fluorescence in the tumour in vivo", "setting": "[1]", "value": "detected"}, {"measurement": "Tolerance of injection", "setting": "[2]", "value": "well-tolerated regardless of the dose"}]}
